# Measured values published in patent EP0696280B1, “SUBSTITUTED PYRROLIDIN-3-YL-ALKYL-PIPERIDINES USEFUL AS TACHYKININ ANTAGONISTS” (MERRELL PHARMACEUTICALS INC., priority 1993, dated 1994).
# Key:
# NK2 receptor = biological target: T1, NK2 receptor (Bos taurus, UniProt P05363); experiment: Antagonism of NK2 receptor mediated (NKA-induced) phosphatidylinositol turnover in SKLKB82#3 cells; format: cell-based; conditions: Schild analysis, NKA in SKLKB82#3 cells; mean (95% confidence limits), 2-3 experiments
# T1 construct: expressed in transfected cells; host or cells: SKLKB82#3 cells
# T1 sequence (P05363 1-384): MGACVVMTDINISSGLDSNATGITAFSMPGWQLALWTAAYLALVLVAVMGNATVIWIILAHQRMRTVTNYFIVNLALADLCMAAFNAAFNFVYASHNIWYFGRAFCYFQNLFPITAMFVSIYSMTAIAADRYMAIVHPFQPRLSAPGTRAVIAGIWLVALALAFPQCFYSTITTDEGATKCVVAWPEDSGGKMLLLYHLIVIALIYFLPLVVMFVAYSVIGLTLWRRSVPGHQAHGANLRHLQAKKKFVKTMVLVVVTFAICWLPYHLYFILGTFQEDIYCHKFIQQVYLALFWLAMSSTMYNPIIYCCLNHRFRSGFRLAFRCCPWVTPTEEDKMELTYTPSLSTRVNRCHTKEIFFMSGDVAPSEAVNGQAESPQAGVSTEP
# Method: (§1) Tachykinin-mediated inositol phosphate accumulation was measured in UCll or SKLKB82#3 cells in the presence and absence of NK1 or NK2 receptor antagonists, respectively. Tissues were incubated in Krebs-Henseleit buffer at 37°C with 95% O2-5% CO2 gassing. Tissues were then incubated with fresh buffer containing 100 µCi of myo-[2-^3H(N)] inositol at 37°C for 60 min with gentle gassing. After washing twice at room temperature in 5 ml buffer containing 10 mM LiCl, tissues were incubated for 30 min at room temperature with a buffer change at 15 min. Buffer was removed and Krebs-Henseleit buffer (containing 40 µg/ml bacitracin, 4 µg/ml each of leupeptin and chymostatin, 0.1% bovine serum albumin and 10 mM each of thiorphan and LiCl) added. After 15 min, SP was added to UCll cells or NKA to SKLKB82#3 cells at various concentrations to start the reaction. After incubation for 60 min at room temperature the reaction was terminated by addition of 930 µl chloroform: methanol (1:2 by volume) to each tube, followed by 310 µl chloroform and 310 µl doubly distilled water. Samples were vortexed, centrifuged, and 0.9 ml of the aqueous (top) phase removed and added to 2 ml ddH2O. The mixture was vortexed and loaded onto a 50% Bio-Rad AG 1-X8 (formate form, 100-200 mesh) exchange column (Bio-Rad Laboratories, Hercules, CA). The columns were washed, in order, with: 1) 10 ml doubly distilled water, 2) 5 ml of 5 mM disodium tetraborate/60 mM sodium formate, and 3) 5 ml of 1 M ammonium formate/0.1 M formic acid. The third elution was collected and 1 ml counted in 7 ml scintillation fluid. A 50 µl aliquot of the organic (bottom) phase was removed, dried in a scintillation vial and counted in 7 ml scintillation fluid.
# (§2) The ratio of DPM in the aqueous phase aliquot (total inositol phosphates) to the DPM in the 50 µl organic phase aliquot (total [^3H]inositol incorporated) was calculated for each sample. Data are expressed as a percent of agonist-induced accumulation of [^3H]-inositol phosphates over basal levels. The ratios in the presence of test compound and/or standards were compared to the ratios for control samples (i.e. no stimulating agonist). Dose-response graphs were constructed and the abilities of the test compounds to inhibit tachykinin-induced phosphatidylinositol turnover determined with the aid of a computer program. […] Data is expressed as percent stimulation of total inositol phosphate accumulation over basal levels and normalized to the maximum response produced by SP. […] Schild analysis is performed using dose response curves (such as those presented in Figures 1a and 1b) to obtain a value indicative of the strength of a competitive antagonist and is expressed as the pA2, which is the negative logarithm of the molar concentration of antagonist which reduces the effect of a dose of agonist to one-half of that expected at the dose of agonist. […]
# (§3) Values are mean (95% confidence limits) derived from Schild analysis of 2-3 experiments per compound per receptor.
# NK1 receptor = biological target: T2, NK1 receptor (Homo sapiens, UniProt P25103); experiment: Antagonism of NK1 receptor mediated (SP-induced) phosphatidylinositol turnover in UC11 cells; format: cell-based; conditions: Schild analysis, SP in UC11 cells; mean (95% confidence limits), 2-3 experiments
# T2 construct: endogenous in cells; host or cells: UC11 cells
# T2 sequence (P25103 whole entry): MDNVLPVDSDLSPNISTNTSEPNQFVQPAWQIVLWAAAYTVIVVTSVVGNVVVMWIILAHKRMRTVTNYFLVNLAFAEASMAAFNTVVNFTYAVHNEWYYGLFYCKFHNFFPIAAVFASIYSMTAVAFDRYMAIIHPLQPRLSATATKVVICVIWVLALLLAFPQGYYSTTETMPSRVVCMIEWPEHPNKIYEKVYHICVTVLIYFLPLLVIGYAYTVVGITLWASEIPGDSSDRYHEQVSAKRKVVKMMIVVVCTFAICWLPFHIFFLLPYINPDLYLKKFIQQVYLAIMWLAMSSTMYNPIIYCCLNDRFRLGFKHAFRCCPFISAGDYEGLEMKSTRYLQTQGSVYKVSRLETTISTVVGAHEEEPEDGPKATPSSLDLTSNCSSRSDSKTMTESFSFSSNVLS
# Method: as §1, §2, §3
compound,measurement,setting,value
"COc1cc(C(=O)N2CCC(CCN3CCC(C(N)=O)(c4ccccc4)CC3)(c3ccc(Cl)c(Cl)c3)C2)cc(OC)c1OC (single isomer, unassigned; (+)) [Example 20, (+)-1-[2-[3-(3,4-dichloro-phenyl)-1-(3,4,5-trimethoxy-benzoyl)-pyrrolidin-3-yl]-ethyl]-4-phenyl-piperidine-4-carboxylic acid amide]",NK-2 RECEPTOR -SLOPE,NK2 receptor,1.00 (0.63-1.37)
same,NK-1 RECEPTOR -SLOPE,NK1 receptor,1.03 (0.78-1.28)
